Experimental data published in patent US20240132463A1, “SUBSTITUTED N-(2-(2,6-DIOXOPIPERIDIN-3-YL)-1,3-DIOXOISOINDOLIN-5-YL)ARYLSULFONAMIDE ANALOGS AS MODULATORS OF CEREBLON PROTEIN” (ST. JUDE CHILDREN'S RESEARCH HOSPITAL, INC., priority 2020, published 2024).
Read-outs that look alike come from different tables or passages of the source.

Tests used:
[1] = molecular target: 6×His-CRBN-DDB1 protein (Homo sapiens (Human), UniProt Q96SW2); test: CRBN fluorescence polarization assay; type: binding
Method: 6×His-CRBN-DDB1 protein (200 nM) and Cy5-O-Len probe (30 nM) were combined in 20 mM HEPES pH 7, 150 mM NaCl, 0.005% Tween-20 assay buffer. […] The plates were incubated in the dark for 1 hour at room temperature and then read on an Envision plate reader (PerkinElmer, Massachusetts, USA).

[2] = molecular target: GSPT1 HiBiT tag protein (Homo sapiens (Human), UniProt P15170+Q96SW2); test: hGSPT1 HiBiT assay; type: cell-based
Chain of GSPT1 HiBiT tag protein (P15170 whole entry): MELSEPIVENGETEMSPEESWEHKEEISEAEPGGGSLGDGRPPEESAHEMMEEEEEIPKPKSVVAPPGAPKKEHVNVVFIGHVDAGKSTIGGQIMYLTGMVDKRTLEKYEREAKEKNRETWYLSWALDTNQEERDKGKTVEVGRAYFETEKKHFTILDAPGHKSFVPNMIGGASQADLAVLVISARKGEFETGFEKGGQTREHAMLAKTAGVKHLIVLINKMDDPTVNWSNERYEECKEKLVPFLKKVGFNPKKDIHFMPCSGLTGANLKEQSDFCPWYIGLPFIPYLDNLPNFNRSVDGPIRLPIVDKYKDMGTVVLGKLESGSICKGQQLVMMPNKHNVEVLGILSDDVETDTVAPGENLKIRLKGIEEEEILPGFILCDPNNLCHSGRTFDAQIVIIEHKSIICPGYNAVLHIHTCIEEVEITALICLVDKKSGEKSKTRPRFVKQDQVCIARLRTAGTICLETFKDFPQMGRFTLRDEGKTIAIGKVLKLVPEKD
Chain of GSPT1 HiBiT tag protein (Q96SW2 whole entry): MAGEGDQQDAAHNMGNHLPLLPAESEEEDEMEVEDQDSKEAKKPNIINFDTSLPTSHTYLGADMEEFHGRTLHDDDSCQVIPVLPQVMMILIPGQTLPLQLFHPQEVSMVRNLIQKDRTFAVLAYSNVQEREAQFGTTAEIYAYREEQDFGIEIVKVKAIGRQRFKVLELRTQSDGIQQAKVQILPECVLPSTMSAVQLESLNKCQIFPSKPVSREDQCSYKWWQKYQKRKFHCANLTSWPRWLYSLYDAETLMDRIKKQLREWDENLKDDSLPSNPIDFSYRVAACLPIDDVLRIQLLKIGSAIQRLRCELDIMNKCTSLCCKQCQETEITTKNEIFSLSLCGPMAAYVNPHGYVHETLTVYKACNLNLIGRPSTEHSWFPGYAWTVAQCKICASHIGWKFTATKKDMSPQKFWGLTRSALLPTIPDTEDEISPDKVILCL
Chain of GSPT1 HiBiT tag protein (Q16531 whole entry partner): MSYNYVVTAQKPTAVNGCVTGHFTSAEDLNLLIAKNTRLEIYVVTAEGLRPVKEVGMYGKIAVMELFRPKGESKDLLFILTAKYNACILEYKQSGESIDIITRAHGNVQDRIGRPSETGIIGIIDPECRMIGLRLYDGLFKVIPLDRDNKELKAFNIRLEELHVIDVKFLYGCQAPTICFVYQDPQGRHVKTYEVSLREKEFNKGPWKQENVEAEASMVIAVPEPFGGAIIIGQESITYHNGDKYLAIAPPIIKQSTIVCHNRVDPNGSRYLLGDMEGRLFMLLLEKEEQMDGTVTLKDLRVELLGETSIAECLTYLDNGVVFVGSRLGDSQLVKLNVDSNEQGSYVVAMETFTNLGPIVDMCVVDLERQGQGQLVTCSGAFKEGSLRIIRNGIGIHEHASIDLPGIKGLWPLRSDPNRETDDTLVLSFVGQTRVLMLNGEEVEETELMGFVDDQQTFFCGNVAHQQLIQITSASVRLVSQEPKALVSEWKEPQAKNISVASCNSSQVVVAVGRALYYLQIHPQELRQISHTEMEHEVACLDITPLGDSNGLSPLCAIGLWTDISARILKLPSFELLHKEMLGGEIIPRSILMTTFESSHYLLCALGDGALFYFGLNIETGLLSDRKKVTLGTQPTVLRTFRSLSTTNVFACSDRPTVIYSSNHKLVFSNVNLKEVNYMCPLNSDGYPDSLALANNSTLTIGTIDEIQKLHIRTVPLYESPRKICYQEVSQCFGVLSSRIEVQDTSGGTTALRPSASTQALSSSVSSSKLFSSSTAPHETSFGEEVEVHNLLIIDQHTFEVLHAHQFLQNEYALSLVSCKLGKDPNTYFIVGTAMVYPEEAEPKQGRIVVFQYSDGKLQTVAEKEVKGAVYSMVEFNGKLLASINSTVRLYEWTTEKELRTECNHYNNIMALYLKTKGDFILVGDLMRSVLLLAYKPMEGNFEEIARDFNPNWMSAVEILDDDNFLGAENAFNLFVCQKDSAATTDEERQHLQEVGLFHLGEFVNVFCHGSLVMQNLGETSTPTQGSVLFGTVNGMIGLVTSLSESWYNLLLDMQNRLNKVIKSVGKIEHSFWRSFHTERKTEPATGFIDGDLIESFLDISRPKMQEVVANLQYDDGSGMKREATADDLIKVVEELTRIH
Method: hGSPT1 HiBiT cell line. HEK293_hGSPT1_HiBiT tagged cells were generated using CRISPR-Cas12a technology. Briefly, ˜400,000 HEK293 cells were transiently co-transfecting with precomplexed ribonuclear proteins (RNPs) consisting of […] of crRNA (IDT), 62 pmol of Cas12a protein (IDT), 3 ug of ssODN donor (IDT; AltR™ modifications), 78 pmol of electroporation enhancer (IDT), and 200 ng of pMaxGFP (Lonza). The transfection was performed via nucleofection (Lonza, 4D-Nucleofector™ X-unit) using solution P3 and program CM-130 in a small (20 ul) cuvette according to the manufacturer's recommended protocol. Five days post-nucleofection, cells were single cell sorted for GFP+(transfected) cells by FACs in 96-well plates and clonally selected. Clones were screened and verified for the desired modification via targeted deep sequencing using gene specific primers with partial Illumina adapter overhangs as previously described.^58 In brief, clonal cell pellets were harvested, lysed and used to generate gene specific amplicons with partial Illumina adapters in PCR #1. Amplicons were indexed in PCR #2 and pooled with other targeted amplicons for other loci to create sequence diversity. Additionally, 10% PhiX Sequencing Control V3 (Illumina) was added to the pooled amplicon library prior to running the sample on an Miseq Sequencer System (Illumina) to generate paired 2×250 bp reads. […] Editing construct sequences and screening primers are listed below in Table 4.
hGSPT1 HiBiT assay. […] After 4 hrs incubation, the level of GSPT1 HiBiT tag protein was evaluated using Nano-Glo® HiBiT Lytic Detection System (Promega) according to the manufacturer's instruction.

[3] = tested on: MV4-11 cells; test: MV-4-11 cell viability assay; type: cell-based, human; details: 72 hours, Cell Titer Glo
Method: MV-4-11 cell line was purchased from the American Type Culture Collection (ATCC, Manassas, VA). The cells were cultured according to recommendations in IMDM cell culture media (ATCC). Exponentially growing MV-4-11 cells were plated at 1,000 cells per well in Corning 8804BC white 384-well assay plates and incubated overnight at 37° C. in a humidified 5% CO2 incubator. Compounds were transferred to the assay plate from a dose-response plate using a Pintool on a Biomek FXP Laboratory Automation Workstation (Beckman Coulter). Cytotoxicity was determined following 72 hours of incubation using Promega Cell Titer Glo reagent according to the manufacturer's recommendation. Luminescence was measured on an Envision plate reader (Perkin-Elmer).
Compounds were screened in human cancer cell lines and each cell line was cultured in the complete medium recommended by the vendor and seeded in Corning 8804BC white 384-well assay plates at density of 1,000, 1,000, 1,000, 1,500 and 7,500 cells per well, for MV4-11, HD-MB03, MB004, MB002 and MHH-CALL4 cells respectively. After overnight incubation at 37° C. in a humidified 5% CO2 incubator, cells were treated with compounds in dose-response format using a Pintool on a Biomek FXP Laboratory Automation Workstation (Beckman Coulter). […] After 72 h incubation, cell proliferation was assessed using Cell Titer-Glo (CTG) luminescent cell viability assay (Promega) according to the manufacturer's instruction. Luminescence signal was measured using an Envision plate reader (Perkin-Elmer).

[4] = Aqueous solubility assay; type: physicochemical; details: aqueous solubility at pH = 7.4, triplicate
Method: Solubility assays were carried out on a Biomek FX lab automation workstation (Beckman Coulter, Inc., Fullerton, CA) using μSOL Evolution software (pION Inc., Woburn, MA). 10 μL of 10 mM compound stock (in DMSO) was added to 190 μL 1-propanol to make a reference stock plate. 5 μL from this reference stock plate were mixed with 70 μL 1-propanol and 75 μL citrate phosphate-buffered saline (PBS;isotonic) to make the reference plate, and the UV spectrum (250-500 nm) of the reference plate was read. 6 μL of 10 mM test compound stock was added to 594 μL buffer in a 96-well storage plate and mixed. The storage plate was sealed and incubated at RT for 18 h. The suspension was then filtered through a 96-well filter plate (pION Inc., Woburn, MA). 75 μL of filtrate was mixed with 75 μL 1-propanol to make the sample plate, and the UV spectrum of the sample plate was read. Calculations were carried out with μSOL Evolution software based on the area under the curve (AUC) of the UV spectrum of the sample and reference plates. All compounds were tested in triplicate.

[5] = tested on: MDCKII-MDR1 cells; test: MDCKII-MDR1 permeability assay; type: in vitro ADME; details: permeability in MDCK-MDR1 cells
Method: High throughput […]1 permeability was performed in the Transwell® 0.4 μm polycarbonate membrane 96-well system with modified methods (Refs. 38-39). […]1 cells were maintained at 37° C. in a humidified incubator with an atmosphere of 5% CO2. The cells were cultured in 75 cm^2 flasks with Dulbecco's Modified Eagle's Medium (DMEM) containing 10% fetal bovine serum (FBS), 1% non-essential amino acids (NEAA), 100 units/ml of penicillin, and 100 μg/ml of streptomycin. The […]1 cells were seeded onto inserts at a density of 2×10^4 and 1×10^4 cells/insert separately. The medium in the wells was exchanged each other day, and the trans epithelial electrical resistance (TEER) value was measured using an epithelial volt-ohm meter (Millipore, Billerica, Massachusetts). […] For transport experiments, each cultured monolayer on the 96-well plate was washed twice with a transport buffer (HBSS/25 mM HEPES, pH 7.4). The permeability assay was initiated by the addition of each compound solution (10 μmol/L) into inserts (apical side, A) or receivers (basolateral side, B). The MDCKII-MDR1 cell monolayers were incubated for 1 hour at 37° C. Fractions were collected from receivers (if apical to basal permeability) or inserts (if basal to apical permeability), and concentrations were assessed by UPLC/MS (Waters; Milford, MA). All compounds were tested in triplicates. The A→B (or B→A) apparent permeability coefficients (Papp) of each compound were calculated using the equation, Papp=dQ/dt×1/AC0, where dQ/dt equals the flux of a drug across the monolayer, A equals the total insert well surface area, and C0 is the initial concentration of substrate in the donor compartment. The efflux ratio was determined by dividing the Papp in the B-A direction by the Papp in the A-B direction.

[6] = cereblon binding, class symbols, read-out: CRBN FP IC50
[7] = HEK293 hGSPT1 HiBiT cells, 4 hrs incubation; read-out: GSPT1 HiBit EC50
[8] = fluorescence polarization, Cy5-O-Len probe, read-out: CRBN IC50

Chain of 6×His-CRBN-DDB1 protein (Q96SW2 whole entry): as the sequence (Q96SW2 whole entry) above
Chain of 6×His-CRBN-DDB1 protein (Q16531 whole entry partner): as the sequence (Q16531 whole entry partner) above

Row | Compound | IC50 [1, 6] | DC50 [2, 7] | further results
1 | Cc1ccc(F)c(S(=O)(=O)Nc2ccc3c(c2)C(=O)N(C2CCC(=O)NC2=O)C3=O)c1 (stereo not shown) [Compound 10, N-(2-(2,6-dioxopiperidin-3-yl)-1,3-dioxoisoindolin-5-yl)-2-fluoro-5-methylbenzenesulfonamide] | < 1000 nM | > 10000 nM | 
2 | O=C1CCC(N2C(=O)c3ccc(NS(=O)(=O)c4ccc(Cl)cc4)cc3C2=O)C(=O)N1 (stereo not shown) [Compound 16, 4-chloro-N-(2-(2,6-dioxopiperidin-3-yl)-1,3-dioxoisoindolin-5-yl)benzenesulfonamide] | < 1000 nM | > 10000 nM | 
3 | O=C1CCC(N2C(=O)c3ccc(NS(=O)(=O)c4ccccc4)cc3C2=O)C(=O)N1 (stereo not shown) [Compound 20, N-(2-(2,6-dioxopiperidin-3-yl)-1,3-dioxoisoindolin-5-yl)benzenesulfonamide] |  |  | IC50 ([1]; CRBN FP IC50, cereblon binding, class symbols): < 1000 nM; IC50 [1, 8]: 72 nM; MV4-11 EC50 [3]: inactive; Sol. [4]: 71 µM; Papp [5]: 3.6 ×10⁻⁶ cm/s; DC50 ([2]; read-out: GSPT1 HiBit EC50; HEK293 hGSPT1 HiBiT cells, 4 hrs incubation): > 10000 nM
4 | O=C1CCC(N2C(=O)c3ccc(NS(=O)(=O)c4ccc(Cl)c(Cl)c4)cc3C2=O)C(=O)N1 (stereo not shown) [Compound 71, 3,4-dichloro-N-(2-(2,6-dioxopiperidin-3-yl)-1,3-dioxoisoindolin-5-yl)benzenesulfonamide] | < 1000 nM | > 10000 nM | 
5 | O=C1CCC(N2C(=O)c3ccc(NS(=O)(=O)c4ccc(OC(F)(F)F)cc4)cc3C2=O)C(=O)N1 (stereo not shown) [Compound 96] | < 1000 nM | > 10000 nM | 
6 | O=C1CCC(N2C(=O)c3ccc(NS(=O)(=O)Cc4ccc(F)cc4)cc3C2=O)C(=O)N1 (stereo not shown) [Compound 89, N-(2-(2,6-dioxopiperidin-3-yl)-1,3-dioxoisoindolin-5-yl)-1-(4-fluorophenyl)methanesulfonamide] | < 1000 nM | > 10000 nM | 
7 | O=C1CCC(N2C(=O)c3ccc(NS(=O)(=O)c4cccc(C(F)(F)F)c4)cc3C2=O)C(=O)N1 (stereo not shown) [Compound 4, N-(2-(2,6-dioxopiperidin-3-yl)-1,3-dioxoisoindolin-5-yl)-3-(trifluoromethyl)benzenesulfonamide] | < 1000 nM | > 10000 nM | 
8 | O=C1CCC(N2C(=O)c3ccc(NS(=O)(=O)c4cc5ccccc5s4)cc3C2=O)C(=O)N1 (stereo not shown) [Compound 87, N-(2-(2,6-dioxopiperidin-3-yl)-1,3-dioxoisoindolin-5-yl)benzo[b]thiophene-2-sulfonamide] | < 1000 nM | > 10000 nM | 
9 | COc1ccccc1S(=O)(=O)Nc1ccc2c(c1)C(=O)N(C1CCC(=O)NC1=O)C2=O (stereo not shown) [Compound 100, N-(2-(2,6-dioxopiperidin-3-yl)-1,3-dioxoisoindolin-5-yl)-2-methoxybenzenesulfonamide] | < 1000 nM | > 10000 nM | 
10 | O=C1CCC(N2C(=O)c3ccc(NS(=O)(=O)c4cccc(F)c4)cc3C2=O)C(=O)N1 (stereo not shown) [Compound 72, N-(2-(2,6-dioxopiperidin-3-yl)-1,3-dioxoisoindolin-5-yl)-3-fluorobenzenesulfonamide] | < 1000 nM | > 10000 nM | 
11 | O=C1CCC(N2C(=O)c3ccc(NS(=O)(=O)c4ccc(O)cc4)cc3C2=O)C(=O)N1 (stereo not shown) [Compound 92, N-(2-(2,6-dioxopiperidin-3-yl)-1,3-dioxoisoindolin-5-yl)-4-hydroxybenzenesulfonamide] | 1000 to 10000 nM | > 10000 nM | 
12 | COc1ccc(Br)cc1S(=O)(=O)Nc1ccc2c(c1)C(=O)N(C1CCC(=O)NC1=O)C2=O (stereo not shown) [Compound 78, 5-bromo-N-(2-(2,6-dioxopiperidin-3-yl)-1,3-dioxoisoindolin-5-yl)-2-methoxybenzenesulfonamide] | 1000 to 10000 nM | > 10000 nM | 
13 | O=C1CCC(N2C(=O)c3ccc(NS(=O)(=O)c4ccc(F)c(Cl)c4)cc3C2=O)C(=O)N1 (stereo not shown) [Compound 17, 3-chloro-N-(2-(2,6-dioxopiperidin-3-yl)-1,3-dioxoisoindolin-5-yl)-4-fluorobenzenesulfonamide] | < 1000 nM | > 10000 nM | 
14 | Cc1cc(S(=O)(=O)Nc2ccc3c(c2)C(=O)N(C2CCC(=O)NC2=O)C3=O)c(C)cc1Cl (stereo not shown) [Compound 77, 4-chloro-N-(2-(2,6-dioxopiperidin-3-yl)-1,3-dioxoisoindolin-5-yl)-2,5-dimethylbenzenesulfonamide] | < 1000 nM | < 1000 nM | 
15 | O=C1CCC(N2C(=O)c3ccc(NS(=O)(=O)c4ccc5ccccc5c4)cc3C2=O)C(=O)N1 (stereo not shown) [Compound 63, N-(2-(2,6-dioxopiperidin-3-yl)-1,3-dioxoisoindolin-5-yl)naphthalene-2-sulfonamide] | < 1000 nM | > 10000 nM | 
16 | Cc1ccccc1S(=O)(=O)Nc1ccc2c(c1)C(=O)N(C1CCC(=O)NC1=O)C2=O (stereo not shown) [Compound 15, N-(2-(2,6-dioxopiperidin-3-yl)-1,3-dioxoisoindolin-5-yl)-2-methylbenzenesulfonamide] | < 1000 nM | 1000 to 10000 nM | 
17 | O=C1CCC(N2C(=O)c3ccc(NS(=O)(=O)c4ccccc4F)cc3C2=O)C(=O)N1 (stereo not shown) [Compound 82, N-(2-(2,6-dioxopiperidin-3-yl)-1,3-dioxoisoindolin-5-yl)-2-fluorobenzenesulfonamide] | < 1000 nM | > 10000 nM | 
18 | Cc1ccc(S(=O)(=O)Nc2ccc3c(c2)C(=O)N(C2CCC(=O)NC2=O)C3=O)cc1Cl (stereo not shown) [Compound 7, 3-chloro-N-(2-(2,6-dioxopiperidin-3-yl)-1,3-dioxoisoindolin-5-yl)-4-methylbenzenesulfonamide] | < 1000 nM | > 10000 nM | IC50 [1, 8]: 13 nM; Papp [5]: 4.6 ×10⁻⁶ cm/s
19 | O=C1CCC(N2C(=O)c3ccc(NS(=O)(=O)c4ccccc4C(F)(F)F)cc3C2=O)C(=O)N1 (stereo not shown) [Compound 99, N-(2-(2,6-dioxopiperidin-3-yl)-1,3-dioxoisoindolin-5-yl)-2-(trifluoromethyl)benzenesulfonamide] | < 1000 nM | < 1000 nM | 
20 | Cc1ccc(S(=O)(=O)Nc2ccc3c(c2)C(=O)N(C2CCC(=O)NC2=O)C3=O)cc1 (stereo not shown) [Compound 21, N-(2-(2,6-dioxopiperidin-3-yl)-1,3-dioxoisoindolin-5-yl)-4-methylbenzenesulfonamide] | 1000 to 10000 nM | > 10000 nM | 
